Results: patent US11401264B2, “Heterocyclic compound” (Orizuru Therapeutics, Inc., priority 2018, dated 2022)

Tests used:
[1] = tested on: cardiomyocytes (embryoid bodies) from double knock-in human iPS cell lines (mCherry at TNNI3 locus); assay: Experimental Example 3: mCherry expression in TNNI1+ cells by flow cytometry, Example 8 with Compound A; assay type: cell-based; settings: DMSO control 10.2
Description: (§1) For detection of cardiomyocyte maturation, double knock-in human iPS cell lines, in which reporter protein sequences, EmGFP (Sequence Number 1) and mCherry (Sequence Number 2) were inserted into gene loci for TNNI1 and TNNI3, respectively, were prepared (the human iPS cells were prepared from episomal vector (loaded gene; OCT3/4, KLF4, SOX2, L-MYC, LIN28, mouse p53DD) using PBMC (LP_167, Sample ID: 20130318) purchased from CTL (reference literature; Okita K, et al. Stem Cells. 2012 Nov. 29. doi: 10.1002/stem.1293)).
(§2) The maintenance culture of the above-mentioned reporter iPS cell lines was carried out by a conventional method (Okita K, et al. Stem Cells. 2012 Nov. 29. doi: 10.1002/stem.1293).
For differentiation induction into cardiomyocytes, the reporter iPS cell lines were treated with 0.5×TrypLE select (Life Technologies, diluted in 1/2 with 0.5 mM EDTA/PBS) for 4 to 5 minutes, and the cells were exfoliated using a cell scraper (IWAKI), and then dissociated into the single cell by pipetting. […]

[2] = tested on: cardiomyocytes (embryoid bodies) from double knock-in human iPS cell lines (mCherry at TNNI3 locus); assay: Experimental Example 2: mCherry expression in TNNI1+ cells by flow cytometry; assay type: cell-based; settings: 3 μM, 8th-16th day, DMSO control 7.8
Description: as §1, §2
For differentiation induction into cardiomyocytes, the reporter iPS cell lines were treated with 0.5×TrypLE select (Life Technologies, diluted in 1/2 with 0.5 mM EDTA/PBS) for 4 to 5 minutes, and the cells were exfoliated using a cell scraper (IWAKI), and then dissociated into the single cell by pipetting. The medium was removed by centrifugation (1,000 rpm, 5 min), and the obtained cells were suspended in a medium prepared by adding 1% L-glutamine, transferrin 150 μg/mL, ascorbic acid 50 μg/mL (Sigma), monothioglycerol […], 10 μM Rock inhibitor (Y-27632), 2 ng/mL BMP4 (R&D) and 0.5% Matrigel (Growth Factor Reduced) to StemPro-34 SFM (ThermoFisher) in a 6 well-plate by 2×10^6 cells/1.5 mL/well, and then subjected to static culture at 37° C., under 5% oxygen condition to form embryoid bodies (0 day).
Next day (1st day), a medium prepared by adding 1% L-glutamine, transferrin 150 μg/mL, ascorbic acid 50 μg/mL (Sigma), monothioglycerol 4><10^−4 M, 1.8 μL (concentration 12 ng/mL) of 10 μg/mL activin A, […] (concentration 10 ng/mL) of 10 μg/mL bFGF and 2.7 μL (concentration 18 ng/mL) of 10 μg/mL BMP4 to 1.5 mL of StemPro-34 SFM (ThermoFisher) was added to each well of the 6 well plate containing the embryoid bodies to adjust the volume combined with the 0 day's medium to final 3 mL (activin A: 6 ng/ml, bFGF: 5 ng/ml, BMP4: 10 ng/ml), and the embryoid bodies were cultured at 37° C. for additional 2 days, under 5% oxygen condition.
Then (3rd day), the 6 well plate containing the embryoid bodies was inclined, and then left to stand for 1 to 2 minutes until the embryoid bodies were precipitated at the edges of the wells, and the supernatant was aspirated so as not to suck the embryoid bodies. Then, IMDM (ThermoFisher) medium was added to each well, and, as above, the plate was inclined, and then left to stand for 1 to 2 minutes, and the supernatant was aspirated so as not to suck the embryoid bodies. A medium prepared by adding 1% L-glutamine, transferrin 150 μg/mL, ascorbic acid 50 μg/mL (Sigma), monothioglycerol 4×10^−4 M, 10 ng/mL VEGF, 1 μM IWP-3, 0.6 μM dorsomorphin and 5.4 μM SB431542 to 3 mL of StemPro-34 SFM (ThermoFisher) was added to each well of the 6 well plate, and then the embryoid bodies were cultured at 37° C. for 3 days, under 5% oxygen condition.
Then (6th day), the 6 well plate containing the embryoid bodies was inclined, and then left to stand for 1 to 2 minutes until the embryoid bodies were precipitated at the edges of the wells, and the supernatant was aspirated so as not to suck the embryoid bodies. […]

## O=C1c2ccc(N3CCOCC3)cc2CN1c1ccc2[nH]c(-c3ccc(Br)cc3)nc2c1 [Example 8, 2-(2-(4-bromophenyl)-1H-benzimidazol-5-yl)-5-(morpholin-4-yl)isoindolin-1-one]
[1]; Example 8 3 μM 8-9th days, then compound A 40 nM 10-15th days
  mCherry+ (%): 64.3%
[1]; Example 8 3 μM 8-9 days, then Example 8 3 μM + Compound A 40 nM 10-15th days
  mCherry+ (%): 85.1%
[2]
  mCherry+ (%): 61.0%
